How the values were obtained:
[1] = target: Serine/threonine-protein kinase RIO1 (Homo sapiens) (UniProt Q9BRS2); conditions: Compound concentration 1000.0 nM
[2] = target: Dual specificity protein kinase CLK2 (Homo sapiens) (UniProt P49760); conditions: Compound concentration 1000.0 nM
[3] = target: Serine/threonine-protein kinase pim-2 (Homo sapiens) (UniProt Q9P1W9); conditions: Compound concentration 1000.0 nM
[4] = system: Leucine-rich repeat serine/threonine-protein kinase 2 (Homo sapiens), Q5S007 [G2019S]; conditions: Compound concentration 1000.0 nM
[5] = target: Hormonally up-regulated neu tumor-associated kinase (Homo sapiens) (UniProt P57058); conditions: Compound concentration 1000.0 nM
Hormonally up-regulated neu tumor-associated kinase (Homo sapiens), sequence (P57058 whole entry): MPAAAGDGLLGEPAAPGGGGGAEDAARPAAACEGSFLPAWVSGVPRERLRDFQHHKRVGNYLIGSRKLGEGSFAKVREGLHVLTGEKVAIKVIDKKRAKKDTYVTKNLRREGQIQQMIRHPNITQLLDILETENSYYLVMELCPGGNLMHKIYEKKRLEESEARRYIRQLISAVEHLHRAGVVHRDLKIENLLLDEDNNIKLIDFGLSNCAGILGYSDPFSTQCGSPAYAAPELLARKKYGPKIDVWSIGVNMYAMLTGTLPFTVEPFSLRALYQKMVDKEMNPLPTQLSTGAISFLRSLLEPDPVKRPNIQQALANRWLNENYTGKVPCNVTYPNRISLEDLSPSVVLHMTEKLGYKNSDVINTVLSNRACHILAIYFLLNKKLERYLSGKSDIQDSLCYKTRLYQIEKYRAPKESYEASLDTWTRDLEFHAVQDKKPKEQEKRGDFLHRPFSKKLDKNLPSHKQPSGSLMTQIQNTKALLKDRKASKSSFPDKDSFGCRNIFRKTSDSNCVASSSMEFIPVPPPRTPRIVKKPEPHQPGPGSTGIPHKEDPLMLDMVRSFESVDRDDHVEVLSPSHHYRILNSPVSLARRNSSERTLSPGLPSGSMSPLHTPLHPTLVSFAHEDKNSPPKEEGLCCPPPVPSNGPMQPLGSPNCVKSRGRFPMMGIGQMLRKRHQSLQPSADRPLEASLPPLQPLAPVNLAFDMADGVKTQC

[6] = target: Activin receptor type-1 (Homo sapiens) (UniProt Q04771); conditions: Compound concentration 1000.0 nM
[7] = system: Tyrosine-protein kinase ABL1 (Homo sapiens), P00519 [H396P]; conditions: Compound concentration 1000.0 nM
[8] = target: Receptor-interacting serine/threonine-protein kinase 1 (Homo sapiens) (UniProt Q13546); conditions: Compound concentration 1000.0 nM
[9] = target: Serine/threonine-protein kinase BRSK2 (Homo sapiens) (UniProt Q8IWQ3); conditions: Compound concentration 1000.0 nM
[10] = target: Ribosomal protein S6 kinase alpha-6 (Homo sapiens) (UniProt Q9UK32); conditions: Compound concentration 1000.0 nM
[11] = species: Rattus norvegicus; conditions: Compound concentration 10.0 uM
[12] = system: Epidermal growth factor receptor (Homo sapiens), P00533 [UNDEFINED MUTATION]; conditions: Compound concentration 1000.0 nM
[13] = target: High affinity nerve growth factor receptor (Homo sapiens) (UniProt P04629); conditions: Compound concentration 1000.0 nM
[14] = target: Tyrosine-protein kinase FRK (Homo sapiens) (UniProt P42685); conditions: Compound concentration 1000.0 nM
Tyrosine-protein kinase FRK (Homo sapiens), sequence (P42685 whole entry): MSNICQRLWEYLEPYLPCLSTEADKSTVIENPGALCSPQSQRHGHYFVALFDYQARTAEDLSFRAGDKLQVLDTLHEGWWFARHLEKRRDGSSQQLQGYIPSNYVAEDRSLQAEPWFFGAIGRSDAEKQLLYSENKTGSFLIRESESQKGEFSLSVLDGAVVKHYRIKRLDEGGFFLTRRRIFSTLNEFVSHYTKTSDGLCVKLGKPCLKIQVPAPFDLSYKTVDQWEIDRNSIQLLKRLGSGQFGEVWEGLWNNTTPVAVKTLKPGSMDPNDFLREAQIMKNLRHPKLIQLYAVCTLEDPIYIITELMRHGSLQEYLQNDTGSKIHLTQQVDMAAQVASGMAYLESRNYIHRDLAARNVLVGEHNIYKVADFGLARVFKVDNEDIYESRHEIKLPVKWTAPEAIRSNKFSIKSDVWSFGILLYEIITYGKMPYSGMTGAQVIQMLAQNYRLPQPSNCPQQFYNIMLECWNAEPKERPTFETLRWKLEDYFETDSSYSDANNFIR

[15] = target: Serine/threonine-protein kinase PLK1 (Homo sapiens) (UniProt P53350); conditions: Compound concentration 1000.0 nM
[16] = target: Mitogen-activated protein kinase kinase kinase 20 (Homo sapiens) (UniProt Q9NYL2); conditions: Compound concentration 1000.0 nM
[17] = target: Interleukin-1 receptor-associated kinase 1 (Homo sapiens) (UniProt P51617); conditions: Compound concentration 1000.0 nM
[18] = system: Phosphatidylinositol 4,5-bisphosphate 3-kinase catalytic subunit alpha isoform (Homo sapiens), P42336 [M1043I]; conditions: Compound concentration 1000.0 nM
[19] = target: Dual specificity mitogen-activated protein kinase kinase 7 (Homo sapiens) (UniProt O14733); conditions: Compound concentration 1000.0 nM
[20] = target: Serine/threonine-protein kinase LATS2 (Homo sapiens) (UniProt Q9NRM7); conditions: Compound concentration 1000.0 nM
[21] = system: Phosphatidylinositol 4,5-bisphosphate 3-kinase catalytic subunit alpha isoform (Homo sapiens), P42336 [C420R]; conditions: Compound concentration 1000.0 nM
[22] = target: Myotonin-protein kinase (Homo sapiens) (UniProt Q09013); conditions: Compound concentration 1000.0 nM
[23] = target: Tyrosine-protein kinase Fes/Fps (Homo sapiens) (UniProt P07332); conditions: Compound concentration 1000.0 nM
[24] = target: Serine/threonine-protein kinase D3 (Homo sapiens) (UniProt O94806); conditions: Compound concentration 1000.0 nM
[25] = target: Myosin-IIIb (Homo sapiens) (UniProt Q8WXR4); conditions: Compound concentration 1000.0 nM
Myosin-IIIb (Homo sapiens), sequence (Q8WXR4 whole entry): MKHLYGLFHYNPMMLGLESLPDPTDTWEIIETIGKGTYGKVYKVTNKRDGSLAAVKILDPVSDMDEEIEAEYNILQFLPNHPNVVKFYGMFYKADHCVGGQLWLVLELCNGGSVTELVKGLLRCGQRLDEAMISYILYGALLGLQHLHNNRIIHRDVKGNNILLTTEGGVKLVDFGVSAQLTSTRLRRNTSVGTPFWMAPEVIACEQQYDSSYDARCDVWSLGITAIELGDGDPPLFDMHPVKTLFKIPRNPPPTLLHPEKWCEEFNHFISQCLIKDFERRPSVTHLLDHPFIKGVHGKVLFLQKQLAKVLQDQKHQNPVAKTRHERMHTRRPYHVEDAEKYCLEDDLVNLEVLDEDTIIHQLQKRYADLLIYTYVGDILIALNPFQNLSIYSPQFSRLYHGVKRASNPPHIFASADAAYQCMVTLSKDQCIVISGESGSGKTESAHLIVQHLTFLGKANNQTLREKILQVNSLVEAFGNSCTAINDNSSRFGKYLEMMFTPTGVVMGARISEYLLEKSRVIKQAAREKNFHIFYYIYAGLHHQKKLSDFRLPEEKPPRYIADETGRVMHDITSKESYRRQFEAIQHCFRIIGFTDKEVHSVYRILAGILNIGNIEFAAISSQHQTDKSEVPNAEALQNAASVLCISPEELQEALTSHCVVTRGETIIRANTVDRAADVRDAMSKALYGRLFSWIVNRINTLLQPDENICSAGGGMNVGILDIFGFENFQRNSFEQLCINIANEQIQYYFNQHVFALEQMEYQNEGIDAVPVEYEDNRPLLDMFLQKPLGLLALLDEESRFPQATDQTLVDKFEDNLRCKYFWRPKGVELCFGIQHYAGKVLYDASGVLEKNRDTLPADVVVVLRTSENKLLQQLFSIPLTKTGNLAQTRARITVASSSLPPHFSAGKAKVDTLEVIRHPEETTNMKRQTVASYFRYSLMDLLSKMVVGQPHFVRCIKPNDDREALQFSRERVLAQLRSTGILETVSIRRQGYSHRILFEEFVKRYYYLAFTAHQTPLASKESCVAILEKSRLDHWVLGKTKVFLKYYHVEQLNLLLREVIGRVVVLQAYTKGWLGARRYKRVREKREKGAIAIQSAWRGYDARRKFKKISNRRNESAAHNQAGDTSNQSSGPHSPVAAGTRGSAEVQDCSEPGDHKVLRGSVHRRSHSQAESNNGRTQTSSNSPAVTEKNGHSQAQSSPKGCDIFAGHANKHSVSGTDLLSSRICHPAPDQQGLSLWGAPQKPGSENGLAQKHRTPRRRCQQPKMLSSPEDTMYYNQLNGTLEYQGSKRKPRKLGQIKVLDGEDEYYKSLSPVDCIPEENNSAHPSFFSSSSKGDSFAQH

[26] = target: Cyclin-dependent kinase-like 5 (Homo sapiens) (UniProt O76039); conditions: Compound concentration 1000.0 nM
[27] = target: Mitotic checkpoint serine/threonine-protein kinase BUB1 (Homo sapiens) (UniProt O43683); conditions: Compound concentration 1000.0 nM
[28] = target: Serine/threonine-protein kinase 36 (Homo sapiens) (UniProt Q9NRP7); conditions: Compound concentration 1000.0 nM
Serine/threonine-protein kinase 36 (Homo sapiens), sequence (Q9NRP7 whole entry): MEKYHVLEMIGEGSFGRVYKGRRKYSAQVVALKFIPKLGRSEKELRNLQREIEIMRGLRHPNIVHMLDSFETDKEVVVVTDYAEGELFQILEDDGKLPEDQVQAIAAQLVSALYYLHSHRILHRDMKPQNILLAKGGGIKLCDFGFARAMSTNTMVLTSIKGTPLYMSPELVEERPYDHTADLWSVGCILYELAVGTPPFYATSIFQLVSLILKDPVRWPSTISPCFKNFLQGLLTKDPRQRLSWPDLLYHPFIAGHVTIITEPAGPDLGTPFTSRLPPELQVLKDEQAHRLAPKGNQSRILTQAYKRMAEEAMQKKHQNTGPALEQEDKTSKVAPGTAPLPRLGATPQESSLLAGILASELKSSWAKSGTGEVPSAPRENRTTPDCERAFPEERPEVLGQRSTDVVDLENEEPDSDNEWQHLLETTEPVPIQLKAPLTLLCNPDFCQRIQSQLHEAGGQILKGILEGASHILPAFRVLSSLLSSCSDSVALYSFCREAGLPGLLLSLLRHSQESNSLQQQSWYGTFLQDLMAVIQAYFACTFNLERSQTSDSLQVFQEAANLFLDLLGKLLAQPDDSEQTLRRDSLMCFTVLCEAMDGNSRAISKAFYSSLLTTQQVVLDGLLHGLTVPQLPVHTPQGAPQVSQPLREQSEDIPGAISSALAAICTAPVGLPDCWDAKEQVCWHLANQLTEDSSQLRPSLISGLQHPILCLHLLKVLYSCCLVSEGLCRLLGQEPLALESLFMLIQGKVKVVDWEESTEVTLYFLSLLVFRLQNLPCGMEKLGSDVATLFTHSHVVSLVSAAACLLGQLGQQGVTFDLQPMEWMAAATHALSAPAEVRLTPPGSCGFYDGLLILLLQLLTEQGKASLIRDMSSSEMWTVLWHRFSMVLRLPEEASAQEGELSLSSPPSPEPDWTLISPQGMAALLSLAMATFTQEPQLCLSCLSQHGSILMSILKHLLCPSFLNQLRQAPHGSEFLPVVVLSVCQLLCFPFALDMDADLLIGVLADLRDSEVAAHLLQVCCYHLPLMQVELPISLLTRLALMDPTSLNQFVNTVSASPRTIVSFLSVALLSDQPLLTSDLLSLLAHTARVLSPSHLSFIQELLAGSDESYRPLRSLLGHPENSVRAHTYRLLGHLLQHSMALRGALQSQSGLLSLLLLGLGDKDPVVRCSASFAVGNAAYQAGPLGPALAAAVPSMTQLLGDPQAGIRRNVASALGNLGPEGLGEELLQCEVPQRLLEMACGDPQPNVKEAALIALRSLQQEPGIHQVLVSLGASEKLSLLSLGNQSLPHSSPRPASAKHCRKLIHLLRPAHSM

[29] = target: Serine/threonine-protein kinase TAO3 (Homo sapiens) (UniProt Q9H2K8); conditions: Compound concentration 1000.0 nM
[30] = system: Phosphatidylinositol 4,5-bisphosphate 3-kinase catalytic subunit alpha isoform (Homo sapiens), P42336 [H1047L]; conditions: Compound concentration 1000.0 nM
[31] = target: Dual specificity mitogen-activated protein kinase kinase 3 (Homo sapiens) (UniProt P46734); conditions: Compound concentration 1000.0 nM
Dual specificity mitogen-activated protein kinase kinase 3 (Homo sapiens), sequence (P46734 whole entry): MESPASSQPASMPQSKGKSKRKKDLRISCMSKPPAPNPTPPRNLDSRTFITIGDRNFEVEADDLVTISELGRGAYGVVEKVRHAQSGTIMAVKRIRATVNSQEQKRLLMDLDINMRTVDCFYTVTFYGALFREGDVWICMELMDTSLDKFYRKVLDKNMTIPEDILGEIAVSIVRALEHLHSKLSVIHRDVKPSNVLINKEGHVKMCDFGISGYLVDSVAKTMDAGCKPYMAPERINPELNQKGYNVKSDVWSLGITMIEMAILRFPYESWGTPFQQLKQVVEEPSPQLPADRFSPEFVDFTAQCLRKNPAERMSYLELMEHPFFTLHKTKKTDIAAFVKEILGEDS

[32] = target: Calcium/calmodulin-dependent protein kinase type II subunit beta (Homo sapiens) (UniProt Q13554); conditions: Compound concentration 1000.0 nM
[33] = target: Myosin light chain kinase (Homo sapiens) (UniProt Q32MK0); conditions: Compound concentration 1000.0 nM
[34] = target: Tyrosine-protein kinase ABL2 (Homo sapiens) (UniProt P42684); conditions: Compound concentration 1000.0 nM
[35] = target: G protein-coupled receptor kinase 4 (Homo sapiens) (UniProt P32298); conditions: Compound concentration 1000.0 nM
[36] = target: Receptor-type tyrosine-protein kinase FLT3 (Homo sapiens) (UniProt P36888); conditions: Compound concentration 1000.0 nM
[37] = target: RAC-beta serine/threonine-protein kinase (Homo sapiens) (UniProt P31751); conditions: Compound concentration 1000.0 nM
[38] = target: Serine/threonine-protein kinase Nek4 (Homo sapiens) (UniProt P51957); conditions: Compound concentration 1000.0 nM
[39] = target: Serine/threonine-protein kinase Nek1 (Homo sapiens) (UniProt Q96PY6); conditions: Compound concentration 1000.0 nM
[40] = target: cAMP-dependent protein kinase catalytic subunit beta (Homo sapiens) (UniProt P22694); conditions: Compound concentration 1000.0 nM
[41] = target: Mitogen-activated protein kinase 7 (Homo sapiens) (UniProt Q13164); conditions: Compound concentration 1000.0 nM
[42] = target: Cyclin-dependent kinase 2 homolog (Plasmodium falciparum (isolate 3D7)) (UniProt P61075); conditions: Compound concentration 1000.0 nM
[43] = system: Epidermal growth factor receptor (Homo sapiens), P00533 [L858R]; conditions: Compound concentration 1000.0 nM

Dual specificity protein kinase CLK2 (Homo sapiens), sequence (P49760 whole entry, looked up): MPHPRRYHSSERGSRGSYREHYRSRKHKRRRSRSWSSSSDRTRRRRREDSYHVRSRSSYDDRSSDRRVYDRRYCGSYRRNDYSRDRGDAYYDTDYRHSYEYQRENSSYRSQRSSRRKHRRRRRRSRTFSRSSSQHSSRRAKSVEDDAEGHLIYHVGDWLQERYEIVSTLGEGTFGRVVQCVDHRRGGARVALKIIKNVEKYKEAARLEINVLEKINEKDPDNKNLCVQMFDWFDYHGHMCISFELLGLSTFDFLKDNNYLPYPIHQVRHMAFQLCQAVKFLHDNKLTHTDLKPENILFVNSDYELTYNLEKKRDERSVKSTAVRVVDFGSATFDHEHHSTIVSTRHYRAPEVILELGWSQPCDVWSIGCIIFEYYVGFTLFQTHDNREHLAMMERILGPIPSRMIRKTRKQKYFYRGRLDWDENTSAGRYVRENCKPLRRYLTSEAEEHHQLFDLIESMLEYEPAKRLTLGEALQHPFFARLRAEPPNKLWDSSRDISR
Serine/threonine-protein kinase pim-2 (Homo sapiens), sequence (Q9P1W9 whole entry, looked up): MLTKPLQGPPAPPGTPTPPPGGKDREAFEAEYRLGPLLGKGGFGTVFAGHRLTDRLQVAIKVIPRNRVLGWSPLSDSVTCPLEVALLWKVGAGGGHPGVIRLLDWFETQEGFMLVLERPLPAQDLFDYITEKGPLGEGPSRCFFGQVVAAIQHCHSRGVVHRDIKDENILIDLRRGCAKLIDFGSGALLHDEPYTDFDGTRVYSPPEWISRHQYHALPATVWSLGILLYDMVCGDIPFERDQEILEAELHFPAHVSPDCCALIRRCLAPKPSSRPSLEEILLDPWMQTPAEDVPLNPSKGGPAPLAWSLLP

N#CC1(c2ccccn2)CCN(Cc2cc(C(=O)O)c(=O)n3ccccc23)CC1 [MSD-M1PAM]
inactive: residual activity [1] 88% | residual activity [2] 100% | residual activity [3] 100% | residual activity [4] 100% | residual activity [5] 100% | residual activity [6] 96% | residual activity [7] 80% | residual activity [8] 100% | residual activity [9] 100% | residual activity [10] 84% | inhibition [11] 7.88% | residual activity [12] 100% | residual activity [13] 88% | residual activity [14] 100% | residual activity [15] 70% | residual activity [16] 100% | residual activity [17] 77% | residual activity [18] 91% | residual activity [19] 95% | residual activity [20] 95% | residual activity [21] 97% | residual activity [22] 97% | residual activity [23] 99% | residual activity [24] 98% | residual activity [25] 100% | residual activity [26] 100% | residual activity [27] 100% | residual activity [28] 100% | residual activity [29] 78% | residual activity [30] 80% | residual activity [31] 73% | residual activity [32] 100% | residual activity [33] 87% | residual activity [34] 100% | residual activity [35] 68% | residual activity [36] 85% | residual activity [37] 73% | residual activity [38] 100% | residual activity [39] 100% | residual activity [40] 92% | residual activity [41] 94% | residual activity [42] 68% | residual activity [43] 86%

N#CC1(c2ccccn2)CCN(Cc2cc(C(=O)N3CCCC3)c(=O)n3ccccc23)CC1
inactive: residual activity [1] 95% | residual activity [2] 100% | residual activity [3] 77% | residual activity [4] 100% | residual activity [5] 79% | residual activity [6] 83% | residual activity [7] 77% | residual activity [8] 100% | residual activity [9] 77% | residual activity [10] 89% | inhibition [11] 46.5% | residual activity [12] 67% | residual activity [13] 100% | residual activity [14] 80% | residual activity [15] 100% | residual activity [16] 95% | residual activity [17] 100% | residual activity [18] 72% | residual activity [19] 100% | residual activity [20] 93% | residual activity [21] 87% | residual activity [22] 90% | residual activity [23] 99% | residual activity [24] 100% | residual activity [25] 100% | residual activity [26] 100% | residual activity [27] 100% | residual activity [28] 98% | residual activity [29] 100% | residual activity [30] 100% | residual activity [31] 81% | residual activity [32] 89% | residual activity [33] 76% | residual activity [34] 100% | residual activity [35] 86% | residual activity [36] 86% | residual activity [37] 84% | residual activity [38] 88% | residual activity [39] 91% | residual activity [40] 54% | residual activity [41] 63% | residual activity [42] 100% | residual activity [43] 87%
